Calls of active or inactive are those of the source. No cut-off for these calls is given here.
Experiments:
HT-1080 [1] = assay: HIM-PROTAC activity at GPX4/HSP90/E3 ligase in human HT-1080 cells assessed as reduction in GPX4 level at 1 uM preincubated with 6-chloro-9-((4-methoxy-3,5-dimethylpyridin-2-yl)methyl)-9H-purin-2-amine for 2 hrs followed by compound addition and measured after 24 hrs by Western blotting analysis; format: cell-based
HT-1080 [2] = assay: Induction of ferroptosis in human HT-1080 cells assessed as ruptured mitochondria at 1 uM incubated for 24 hrs by TEM analysis; format: functional, cell-based
HT-1080 [3] = assay: Upregulation of GPX4 protein level in human HT-1080 cells at 1 uM incubated for 4 hrs by Western blotting analysis; format: functional, cell-based
[4] = AUC(0 to t) in ICR mouse at 25 mg/kg, ip measured upto 24 hrs by LC-MS/MS analysis; format: ADME, organism-based; conditions: in vivo
HT-1080 [5] = assay: Induction of ferroptosis in human HT-1080 cells assessed as appearance of autophagosome-like structures at 1 uM incubated for 24 hrs by TEM analysis; format: functional, cell-based
B16-F10 = assay: HIM-PROTAC activity at GPX4/HSP90/E3 ligase in mouse B16-F10 cells assessed as reduction in GPX4 level at 0.1 to 3 uM incubated for 24 hrs by Western blotting analysis; format: cell-based; conditions: dose 0.1-3 µM
4T1 = assay: HIM-PROTAC activity at GPX4/HSP90/E3 ligase in […] cells assessed as reduction in GPX4 level at 0.1 to 3 uM incubated for 24 hrs by Western blotting analysis; format: cell-based; conditions: dose 0.1-3 µM
HT-1080 [6] = assay: Induction of ferroptosis in human HT-1080 cells assessed as broken mitochondrial outer membrane at 1 uM incubated for 24 hrs by TEM analysis; format: functional, cell-based
[7] = Toxicity in BALB/c mouse xenografted with human HT-1080 cells assessed as change in lung morphology at 25 to 50 mg/kg, ip administered once daily by H and E staining based assay; format: organism-based; conditions: in vivo, dose 25-50 mg/kg
HT-1080 [8] = assay: HIM-PROTAC activity at GPX4/HSP90/E3 ligase in human HT-1080 cells assessed as reduction in GPX4 level at 1 uM preincubated with 2-chloro-N-(3-chloro-4-methoxyphenyl)-N-(2-oxo-2-(phenethylamino)-1-(thiophen-2-yl)ethyl)acetamide for 2 hrs followed by compound addition and measured after 24 hrs by Western blotting analysis; format: cell-based
HT-1080 [9] = assay: HIM-PROTAC activity at GPX4/HSP90/E3 ligase in human HT-1080 cells assessed as reduction in GPX4 level at 1 uM preincubated with MG132 for 2 hrs followed by compound addition and measured after 24 hrs by Western blotting analysis; format: cell-based
[10] = target: T1, Phospholipid hydroperoxide glutathione peroxidase GPX4 (Homo sapiens) (UniProt P36969); assay: Induction of GPX4 ubiquitination in human HT-1080 cells at 1 uM incubated for 12 hrs by SDS-PAGE assay; format: cell-based; conditions: filed as activator
T1 sequence (whole entry): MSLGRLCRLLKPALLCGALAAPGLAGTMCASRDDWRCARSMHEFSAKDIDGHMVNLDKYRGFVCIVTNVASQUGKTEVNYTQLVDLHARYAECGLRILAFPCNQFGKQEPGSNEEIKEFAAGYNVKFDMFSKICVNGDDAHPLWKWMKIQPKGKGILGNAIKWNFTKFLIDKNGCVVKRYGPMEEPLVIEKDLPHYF

HT-1080 [11] = assay: HIM-PROTAC activity at GPX4/HSP90/E3 ligase in human HT-1080 cells assessed as reduction in GPX4 level at 1 uM incubated for 24 hrs by Western blotting analysis; format: cell-based; set-up: scale not given: the % may be the effect or the level left
[12] = Toxicity in BALB/c mouse xenografted with human HT-1080 cells assessed as animal death at 50 mg/kg, ip administered once daily measured after 10 days; format: organism-based; conditions: in vivo, 240 h, time 10 day
Mus musculus [13] = assay: Effect on HSP90 level in BALB/c mouse xenografted with human HT-1080 cells at 25 to 50 mg/kg, ip administered once daily by immunohistochemistry analysis; format: functional, organism-based; conditions: dose 25-50 mg/kg
HT-1080 [14] = assay: Induction of ferroptosis in human HT-1080 cells assessed as increase in HMOX1 protein level after 24 hrs by Western blotting analysis; format: functional, cell-based; conditions: dose 0.1-3 µM
[15] = target: Heat shock protein HSP 90-alpha (Homo sapiens, UniProt P07900); assay: Binding affinity to recombinant human HSP90alpha by SPR assay
[16] = Cmax in ICR mouse at 25 mg/kg, ip measured upto 24 hrs by LC-MS/MS analysis; format: ADME, organism-based; conditions: in vivo
HT-1080 [17] = assay: Induction of ferroptosis in human HT-1080 cells assessed as increase in ROS level at 1 uM incubated for 24 hrs by DCFH-DA staining based confocal laser scanning microscopic analysis; format: functional, cell-based
[18] = AUCinfinity in ICR mouse at 25 mg/kg, ip measured upto 24 hrs by LC-MS/MS analysis; format: ADME, organism-based; conditions: in vivo
[19] = MRT(infinity) in ICR mouse at 25 mg/kg, ip measured upto 24 hrs by LC-MS/MS analysis; format: ADME, organism-based; conditions: in vivo
HT-1080 [20] = assay: HIM-PROTAC activity at GPX4/HSP90/E3 ligase in HSP90-knockdown human HT-1080 cells assessed as GPX4 degradation at 0.3 to 1 uM incubated for 24 hrs by Western blotting analysis; format: cell-based; conditions: dose 0.3-1 µM
HT-1080 [21] = assay: Induction of ferroptosis in human HT-1080 cells assessed as reduction in mitochondrial crests at 1 uM incubated for 24 hrs by TEM analysis; format: functional, cell-based
HT-1080 [22] = assay: Induction of ferroptosis in human HT-1080 cells assessed as increase in Fe2+ level at 1 uM incubated for 24 hrs by FerroOrange staining based confocal laser scanning microscopic analysis; format: functional, cell-based
Mus musculus [23] = assay: Upregulation of 4-HNE level in ip dosed BALB/c mouse xenografted with human HT-1080 cells administered once daily by immunohistochemistry analysis; format: functional, organism-based; conditions: dose 25-50 mg/kg
MDA-MB-231 = assay: HIM-PROTAC activity at GPX4/HSP90/E3 ligase in human MDA-MB-231 cells assessed as reduction in GPX4 level at 0.1 to 3 uM incubated for 24 hrs by Western blotting analysis; format: cell-based; conditions: dose 0.1-3 µM
HT-1080 [24] = assay: Antitumor activity against human HT-1080 cells xenografted in ip dosed BALB/c mouse assessed as tumor growth suppression administered once daily; format: functional, organism-based; conditions: dose 25-50 mg/kg
[25] = Toxicity in BALB/c mouse xenografted with human HT-1080 cells assessed as change in spleen morphology at 25 to 50 mg/kg, ip administered once daily by H and E staining based assay; format: organism-based; conditions: in vivo, dose 25-50 mg/kg
Mus musculus [26] = assay: Upregulation of 4-HNE protein level in BALB/c mouse tumor xenografted with human HT-1080 cells at 50 to 100 mg/kg, ip measured upto 36 hrs; format: functional, organism-based; conditions: dose 50-100 mg/kg
[27] = Toxicity in BALB/c mouse xenografted with human HT-1080 cells assessed as change in heart morphology at 25 to 50 mg/kg, ip administered once daily by H and E staining based assay; format: organism-based; conditions: in vivo, dose 25-50 mg/kg
HT-1080 [28] = assay: Cytotoxicity against human HT-1080 cells incubated for 48 hrs by CCK-8 assay; format: functional, cell-based; conditions: HT-1080, 48 h
[29] = Tmax in ICR mouse at 25 mg/kg, ip measured upto 24 hrs by LC-MS/MS analysis; format: ADME, organism-based; conditions: in vivo
HT-1080 [30] = assay: Downregulation of GPX4 protein level in human HT-1080 cells at 1 uM incubated for 24 hrs by proteomics analysis; format: functional, cell-based

SMILES	Activity (HT-1080 [1])	Activity (HT-1080 [2])	Activity (HT-1080 [3])	AUC(0-t) at 24 h [4] [ng·h/mL]	Activity (HT-1080 [5])	Activity (B16-F10)	Activity (4T1)	Activity (HT-1080 [6])	Activity [7]	Activity (HT-1080 [8])	Activity (HT-1080 [9])	Activity [10]	Activity (HT-1080 [11]) [%]	Activity [12]	Activity (Mus musculus [13])	Activity (HT-1080 [14])	Kd [15] [nM]	Cmax [16] [ng/mL]	Activity (HT-1080 [17])	AUC(0-inf) [18] [ng·h/mL]	other results
COc1c(C)cnc(Cn2cnc3c(NCCOCCOCCOCCn4cc(COc5ccc(N(C(=O)CCl)C(C(=O)NCCc6ccccc6)c6cccs6)cc5Cl)nn4)nc(N)nc32)c1C (stereo unspecified)	inactive	Active	Active	726	Active	Active	Active	Active	Non-Toxic	inactive	inactive	Active	100	Non-Toxic	inactive	Dose-Dependent Effect	2770	139	Active	1030	MRT inf [19]: 8.2 h; Activity (HT-1080 [20]): inactive; Activity (HT-1080 [21]): Active; Activity (HT-1080 [22]): Active; Activity (Mus musculus [23]): Dose-Dependent Effect; Activity (MDA-MB-231): inactive; Activity (HT-1080 [24]): Dose-Dependent Effect; Activity [25]: Non-Toxic; Activity (Mus musculus [26]): Active; Activity [27]: Non-Toxic; IC50 (HT-1080 [28]): 1300 nM; Tmax [29]: 2 h; Activity (HT-1080 [30]): Active
COc1c(C)cnc(Cn2cnc3c(NCCC4CCN(C(=O)Cn5cc(COc6ccc(N(C(=O)CCl)C(C(=O)NCCc7ccccc7)c7cccs7)cc6Cl)nn5)CC4)nc(N)nc32)c1C (stereo unspecified)	inactive	Active	Active	334	Active	Active	Active	Active	Non-Toxic	inactive	inactive	Active	100	Non-Toxic	inactive	Dose-Dependent Effect	190	53.1	Active	346	MRT inf [19]: 6.2 h; Activity (HT-1080 [20]): inactive; Activity (HT-1080 [21]): Active; Activity (HT-1080 [22]): Active; Activity (Mus musculus [23]): Dose-Dependent Effect; Activity (MDA-MB-231): inactive; Activity (HT-1080 [24]): Dose-Dependent Effect; Activity [25]: Non-Toxic; Activity (Mus musculus [26]): Active; Activity [27]: Non-Toxic; IC50 (HT-1080 [28]): 740 nM; Tmax [29]: 2 h; Activity (HT-1080 [30]): Active
